In ChEMBL document CHEMBL3232998, “Spiromastixones A-O, antibacterial chlorodepsidones from a deep-sea-derived Spiromastix sp. fungus” (J Nat Prod, 2014):
Values after ≈ are worked out from the molar mass of the structure shown. Each block holds one compound with its values, some of them ahead of it.

Experiments:
Enterococcus faecalis [1] = experiment: Antibacterial activity against vancomycin-resistant Enterococcus faecalis 09-9 after 18 hrs by broth microdilution method; format: functional, organism-based; settings: 09-9, 18 h, read-out: IC50
Escherichia coli [2] = experiment: Antibacterial activity against extended spectrum beta-lactamase-deficient Escherichia coli ATCC 25922 after 18 hrs by broth microdilution method; format: functional, organism-based; settings: ATCC 25922, 18 h, read-out: IC50
Klebsiella pneumoniae [3] = experiment: Antibacterial activity against extended spectrum beta-lactamase producing Klebsiella pneumoniae ATCC 700603 after 18 hrs by broth microdilution method; format: functional, organism-based; settings: ATCC 700603, 18 h
Bacillus thuringiensis = experiment: Antibacterial activity against Bacillus thuringiensis SCSIO BT01 after 18 hrs by broth microdilution method; format: functional; settings: SCSIO BT01, 18 h
Staphylococcus aureus [4] = experiment: Antibacterial activity against methicillin-sensitive Staphylococcus aureus 12-28 after 18 hrs by broth microdilution method; format: functional, organism-based; settings: 12-28, 18 h
Bacillus subtilis = experiment: Antibacterial activity against Bacillus subtilis SCSIO BS01 after 18 hrs by broth microdilution method; format: functional; settings: SCSIO BS01, 18 h
Escherichia coli [5] = experiment: Antibacterial activity against extended spectrum beta-lactamase-deficient Escherichia coli 12-14 after 18 hrs by broth microdilution method; format: functional, organism-based; settings: 12-14, 18 h, read-out: IC50
Enterococcus faecalis [6] = experiment: Antibacterial activity against vancomycin-sensitive Enterococcus faecalis ATCC 29212 after 18 hrs by broth microdilution method; format: functional, organism-based; settings: ATCC 29212, 18 h, read-out: IC50
Escherichia coli [7] = experiment: Antibacterial activity against Escherichia coli ATCC 25922 after 18 hrs by broth microdilution method; format: functional; settings: ATCC 25922, 18 h
Klebsiella pneumoniae [8] = experiment: Antibacterial activity against extended spectrum beta-lactamase-deficient Klebsiella pneumoniae 12-4 after 18 hrs by broth microdilution method; format: functional, organism-based; settings: 12-4, 18 h
[9] = test system: Staphylococcus epidermidis; experiment: Antibacterial activity against methicillin-resistant Staphylococcus epidermidis 12-8 after 18 hrs by broth microdilution method; format: functional, organism-based; settings: 12-8, 18 h, read-out: IC50
Klebsiella pneumoniae [10] = experiment: Antibacterial activity against NDM-1 producing Klebsiella pneumoniae ATCC BAA-2146 after 18 hrs by broth microdilution method; format: functional, organism-based; settings: ATCC BAA-2146, 18 h, read-out: IC50
Staphylococcus aureus [11] = experiment: Antibacterial activity against methicillin-sensitive Staphylococcus aureus ATCC 29213 after 18 hrs by broth microdilution method; format: functional, organism-based; settings: ATCC 29213, 18 h, read-out: IC50
Staphylococcus aureus [12] = experiment: Antibacterial activity against methicillin-sensitive Staphylococcus aureus 15 after 18 hrs by broth microdilution method; format: functional, organism-based; settings: Staphylococcus aureus, 15, 18 h; read-out: IC50
[13] = test system: Staphylococcus epidermidis; experiment: Antibacterial activity against methicillin-sensitive Staphylococcus epidermidis ATCC 12228 after 18 hrs by broth microdilution method; format: functional, organism-based; settings: ATCC 12228, 18 h, read-out: IC50
Staphylococcus aureus [14] = experiment: Antibacterial activity against Staphylococcus aureus ATCC 29213 after 18 hrs by broth microdilution method; format: functional; settings: ATCC 29213, 18 h
Escherichia coli [15] = experiment: Antibacterial activity against extended spectrum beta-lactamase-deficient Escherichia coli 1515 after 18 hrs by broth microdilution method; format: functional, organism-based; settings: Escherichia coli, 1515, 18 h
Enterococcus faecium [16] = experiment: Antibacterial activity against vancomycin-resistant Enterococcus faecium 12-1 after 18 hrs by broth microdilution method; format: functional, organism-based; settings: 12-1, 18 h, read-out: IC50
Enterococcus faecalis [17] = experiment: Antibacterial activity against vancomycin-resistant Enterococcus faecalis ATCC 51299 after 18 hrs by broth microdilution method; format: functional, organism-based; settings: ATCC 51299, 18 h, read-out: IC50
Enterococcus faecalis [18] = experiment: Antibacterial activity against vancomycin-sensitive Enterococcus faecalis 12-5 after 18 hrs by broth microdilution method; format: functional, organism-based; settings: 12-5, 18 h, read-out: IC50
Klebsiella pneumoniae [19] = experiment: Antibacterial activity against extended spectrum beta-lactamase-deficient Klebsiella pneumoniae 7 after 18 hrs by broth microdilution method; format: functional, organism-based; settings: Klebsiella pneumoniae, 7, 18 h; read-out: IC50
Staphylococcus aureus [20] = experiment: Antibacterial activity against methicillin-resistant Staphylococcus aureus 12-33 after 18 hrs by broth microdilution method; format: functional, organism-based; settings: 12-33, 18 h, read-out: IC50
Staphylococcus aureus [21] = experiment: Antibacterial activity against methicillin-resistant Staphylococcus aureus ATCC 33591 after 18 hrs by broth microdilution method; format: functional, organism-based; settings: ATCC 33591, 18 h, read-out: IC50
Enterococcus faecium [22] = experiment: Antibacterial activity against vancomycin-resistant Enterococcus faecium ATCC 700221 after 18 hrs by broth microdilution method; format: functional, organism-based; settings: ATCC 700221, 18 h, read-out: IC50
Staphylococcus aureus [23] = experiment: Ratio of levofloxacin IC50 to compound IC50 for methicillin-resistant Staphylococcus aureus 12-33 after 18 hrs by broth microdilution method; format: functional
[24] = test system: Staphylococcus epidermidis; experiment: Antibacterial activity against methicillin-sensitive Staphylococcus epidermidis 12-6 after 18 hrs by broth microdilution method; format: functional, organism-based; settings: 12-6, 18 h
Klebsiella pneumoniae [25] = experiment: Antibacterial activity against extended spectrum beta-lactamase producing Klebsiella pneumoniae 12-8 after 18 hrs by broth microdilution method; format: functional, organism-based; settings: 12-8, 18 h, read-out: IC50
Escherichia coli [26] = experiment: Antibacterial activity against extended spectrum beta-lactamase producing Escherichia coli 12-15 after 18 hrs by broth microdilution method; format: functional, organism-based; settings: 12-15, 18 h, read-out: IC50
Enterococcus faecium [27] = experiment: Antibacterial activity against vancomycin-sensitive Enterococcus faecium 12-3 after 18 hrs by broth microdilution method; format: functional, organism-based; settings: 12-3, 18 h, read-out: IC50

SMILES: CCCc1c(Cl)c(O)c(Cl)c2c1Oc1c(Cl)c(O)c(Cl)c(CCC)c1C(=O)O2
MIC (Enterococcus faecalis [1]): 64 µM (≈ 29.8 µg/mL)
MIC (Escherichia coli [2]): > 256 µM
IC50 (Klebsiella pneumoniae [3]): > 256000 nM
MIC (Bacillus thuringiensis): 2 µg/mL (≈ 4.29 µM)
IC50 (Staphylococcus aureus [4]): 16000 nM
MIC (Bacillus subtilis): 2 µg/mL (≈ 4.29 µM)
MIC (Escherichia coli [5]): > 256 µM
MIC (Enterococcus faecalis [6]): 64 µM (≈ 29.8 µg/mL)
MIC (Escherichia coli [7]): > 128 µg/mL
IC50 (Klebsiella pneumoniae [8]): > 256000 nM
MIC [9]: 8 µM (≈ 3.73 µg/mL)
MIC (Klebsiella pneumoniae [10]): > 256 µM
MIC (Staphylococcus aureus [11]): 16 µM (≈ 7.46 µg/mL)
MIC (Staphylococcus aureus [12]): 16 µM (≈ 7.46 µg/mL)
MIC [13]: 4 µM (≈ 1.86 µg/mL)
MIC (Staphylococcus aureus [14]): 4 µg/mL (≈ 8.58 µM)
IC50 (Escherichia coli [15]): > 256000 nM
MIC (Enterococcus faecium [16]): 64 µM (≈ 29.8 µg/mL)
MIC (Enterococcus faecalis [17]): 64 µM (≈ 29.8 µg/mL)
MIC (Enterococcus faecalis [18]): 64 µM (≈ 29.8 µg/mL)
MIC (Klebsiella pneumoniae [19]): > 256 µM
MIC (Staphylococcus aureus [20]): 32 µM (≈ 14.9 µg/mL)
MIC (Staphylococcus aureus [21]): 16 µM (≈ 7.46 µg/mL)
MIC (Enterococcus faecium [22]): 64 µM (≈ 29.8 µg/mL)
Ratio IC50 (Staphylococcus aureus [23]): 2
IC50 [24]: 4000 nM
MIC (Klebsiella pneumoniae [25]): > 256 µM
MIC (Escherichia coli [26]): > 256 µM
MIC (Enterococcus faecium [27]): 64 µM (≈ 29.8 µg/mL)

MIC (Bacillus thuringiensis): 0.5 µg/mL (≈ 1.12 µM)
MIC (Bacillus subtilis): 0.5 µg/mL (≈ 1.12 µM)
MIC (Escherichia coli [7]): > 128 µg/mL
MIC (Staphylococcus aureus [14]): 0.5 µg/mL (≈ 1.12 µM)
SMILES: CCCc1c(Cl)c(OC)cc2c1OC(=O)c1c(CCC)c(Cl)c(O)c(Cl)c1O2

MIC (Bacillus thuringiensis): 0.5 µg/mL (≈ 1.04 µM)
MIC (Bacillus subtilis): 0.25 µg/mL (≈ 0.521 µM)
MIC (Escherichia coli [7]): > 128 µg/mL
MIC (Staphylococcus aureus [14]): 0.25 µg/mL (≈ 0.521 µM)
SMILES: CCCc1c(Cl)c(OC)c(Cl)c2c1OC(=O)c1c(CCC)c(Cl)c(O)c(Cl)c1O2

MIC (Bacillus thuringiensis): 2 µg/mL (≈ 5.03 µM)
MIC (Bacillus subtilis): 2 µg/mL (≈ 5.03 µM)
MIC (Escherichia coli [7]): > 128 µg/mL
MIC (Staphylococcus aureus [14]): 4 µg/mL (≈ 10.1 µM)
SMILES: CCCc1cc(O)cc2c1OC(=O)c1c(CCC)c(Cl)c(O)c(Cl)c1O2

MIC (Bacillus thuringiensis): 1 µg/mL (≈ 2.32 µM)
MIC (Bacillus subtilis): 0.5 µg/mL (≈ 1.16 µM)
MIC (Escherichia coli [7]): > 128 µg/mL
MIC (Staphylococcus aureus [14]): 1 µg/mL (≈ 2.32 µM)
SMILES: CCCc1c(Cl)c(O)cc2c1OC(=O)c1c(CCC)c(Cl)c(O)c(Cl)c1O2

MIC (Bacillus thuringiensis): 2 µg/mL (≈ 4.29 µM)
MIC (Bacillus subtilis): 2 µg/mL (≈ 4.29 µM)
MIC (Escherichia coli [7]): > 128 µg/mL
MIC (Staphylococcus aureus [14]): 4 µg/mL (≈ 8.58 µM)
SMILES: CCCc1c(Cl)c(O)c(Cl)c2c1OC(=O)c1c(CCC)c(Cl)c(O)c(Cl)c1O2

SMILES: C[C@H]1COc2c(N3CCN(C)CC3)c(F)cc3c(=O)c(C(=O)O)cn1c23 [LEVOFLOXACIN]
MIC (Enterococcus faecalis [1]): > 128 µM
MIC (Escherichia coli [2]): ≤ 0.03 µM
IC50 (Klebsiella pneumoniae [3]): 1000 nM
IC50 (Staphylococcus aureus [4]): 250 nM
MIC (Escherichia coli [5]): 1 µM (≈ 0.361 µg/mL)
MIC (Enterococcus faecalis [6]): 1 µM (≈ 0.361 µg/mL)
IC50 (Klebsiella pneumoniae [8]): 125 nM
MIC [9]: 4 µM (≈ 1.45 µg/mL)
MIC (Klebsiella pneumoniae [10]): > 128 µM
MIC (Staphylococcus aureus [11]): 0.25 µM (≈ 0.0903 µg/mL)
MIC (Staphylococcus aureus [12]): 0.125 µM (≈ 0.0452 µg/mL)
MIC [13]: 0.25 µM (≈ 0.0903 µg/mL)
IC50 (Escherichia coli [15]): 125 nM
MIC (Enterococcus faecium [16]): 64 µM (≈ 23.1 µg/mL)
MIC (Enterococcus faecalis [17]): 1 µM (≈ 0.361 µg/mL)
MIC (Enterococcus faecalis [18]): 1 µM (≈ 0.361 µg/mL)
MIC (Klebsiella pneumoniae [19]): 0.25 µM (≈ 0.0903 µg/mL)
MIC (Staphylococcus aureus [20]): 64 µM (≈ 23.1 µg/mL)
MIC (Staphylococcus aureus [21]): 0.25 µM (≈ 0.0903 µg/mL)
MIC (Enterococcus faecium [22]): 64 µM (≈ 23.1 µg/mL)
IC50 [24]: 250 nM
MIC (Klebsiella pneumoniae [25]): 16 µM (≈ 5.78 µg/mL)
MIC (Escherichia coli [26]): 32 µM (≈ 11.6 µg/mL)
MIC (Enterococcus faecium [27]): 64 µM (≈ 23.1 µg/mL)

MIC (Bacillus thuringiensis): 128 µg/mL (≈ 383 µM)
MIC (Bacillus subtilis): 0.125 µg/mL (≈ 0.374 µM)
MIC (Escherichia coli [7]): > 128 µg/mL
MIC (Staphylococcus aureus [14]): 0.125 µg/mL (≈ 0.374 µM)
SMILES: CC1(C)S[C@@H]2[C@H](NC(=O)Cc3ccccc3)C(=O)N2[C@H]1C(=O)O [PENICILLIN G]
